Experiments:
OVCAR8 = assay: drug sensitivity score (DSS2) on cancer cell count; higher = more sensitive; extreme values may be limits of the assay; settings: 72 h
Outline: (§1)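 Ovarian cancer cells were cultured either alone or directly mixed 1:1 with lung or skin fibroblasts and plated onto 384-well plates acoustically pre-spotted with 528 approved and investigational compounds at 5 concentrations for 72 h of treatment. After fixation, cells were immunostained for CK8/18 with Hoechst and imaged at 10× across 4 fields to count cancer cells. Responses were fitted with 4-parameter logistic curves, and from these fits a drug sensitivity score was derived in Breeze, with screen quality assessed by Z'.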

KURAMOCHI = assay: as above; settings: 72 h
Outline: as §1

[1] = co-cultured fibroblast: BJHTERT
[2] = co-cultured fibroblast: none (monoculture)

SMILES: COc1cc2c(NC3CCN(C(C)C)CC3)nc(N3CCC(F)(F)CC3)nc2cc1OCCCN1CCCC1 [UNC0642]
- drug sensitivity score (OVCAR8; [1]): 8 DSS
- drug sensitivity score (OVCAR8; co-cultured fibroblast: WI38): 0 DSS
- drug sensitivity score (OVCAR8; [2]): 2.2 DSS
- drug sensitivity score (KURAMOCHI; [1]): 1.5 DSS
- drug sensitivity score (KURAMOCHI; co-cultured fibroblast: WI38): 0.7 DSS
- drug sensitivity score (KURAMOCHI; [2]): 0.1 DSS

SMILES: Nc1nc2[nH]cnc2c(=S)[nH]1 [Thioguanine]
- drug sensitivity score (OVCAR8; [1]): 4.8 DSS
- drug sensitivity score (OVCAR8; co-cultured fibroblast: WI38): 7.3 DSS
- drug sensitivity score (OVCAR8; [2]): 13.6 DSS
- drug sensitivity score (KURAMOCHI; [1]): 5.3 DSS
- drug sensitivity score (KURAMOCHI; co-cultured fibroblast: WI38): 5.7 DSS
- drug sensitivity score (KURAMOCHI; [2]): 7.7 DSS

SMILES: CNC(=O)c1ccc(-c2cnc3ncc(Cc4ccc5ncccc5c4)n3n2)cc1F [Capmatinib]
- drug sensitivity score (OVCAR8; [1]): 0 DSS
- drug sensitivity score (OVCAR8; co-cultured fibroblast: WI38): 0 DSS
- drug sensitivity score (OVCAR8; [2]): 0 DSS
- drug sensitivity score (KURAMOCHI; [1]): 0 DSS
- drug sensitivity score (KURAMOCHI; co-cultured fibroblast: WI38): 0 DSS
- drug sensitivity score (KURAMOCHI; [2]): 0 DSS

SMILES: NCC(=O)Nc1ccc(-n2nc(C(F)(F)F)cc2-c2ccc3c(ccc4ccccc43)c2)cc1
- drug sensitivity score (OVCAR8; [1]): 0 DSS
- drug sensitivity score (OVCAR8; co-cultured fibroblast: WI38): 0 DSS
- drug sensitivity score (OVCAR8; [2]): 9.7 DSS
- drug sensitivity score (KURAMOCHI; [1]): 2.6 DSS
- drug sensitivity score (KURAMOCHI; co-cultured fibroblast: WI38): 4.1 DSS
- drug sensitivity score (KURAMOCHI; [2]): 8 DSS

SMILES: CCCCCOC(=O)Nc1nc(=O)n([C@@H]2O[C@H](C)[C@@H](O)[C@H]2O)cc1F [Capecitabine]
- drug sensitivity score (OVCAR8; [1]): 0 DSS
- drug sensitivity score (OVCAR8; co-cultured fibroblast: WI38): 2.7 DSS
- drug sensitivity score (OVCAR8; [2]): 1.2 DSS
- drug sensitivity score (KURAMOCHI; [1]): 3.3 DSS
- drug sensitivity score (KURAMOCHI; co-cultured fibroblast: WI38): 0 DSS
- drug sensitivity score (KURAMOCHI; [2]): 0 DSS

SMILES: Cc1cccc(-c2nn3c(c2-c2ccnc4ccc(C(N)=O)cc24)CCC3)n1 [Galunisertib]
- drug sensitivity score (OVCAR8; [1]): 0 DSS
- drug sensitivity score (OVCAR8; co-cultured fibroblast: WI38): 0 DSS
- drug sensitivity score (OVCAR8; [2]): 0 DSS
- drug sensitivity score (KURAMOCHI; [1]): 3.4 DSS
- drug sensitivity score (KURAMOCHI; co-cultured fibroblast: WI38): 0 DSS
- drug sensitivity score (KURAMOCHI; [2]): 13.8 DSS

SMILES: CNC(=O)c1cc(COc2nnc(Nc3ccc(Cl)cc3)c3ccoc23)ccn1 [Telatinib]
- drug sensitivity score (OVCAR8; [1]): 1.1 DSS
- drug sensitivity score (OVCAR8; co-cultured fibroblast: WI38): 0 DSS
- drug sensitivity score (OVCAR8; [2]): 0 DSS
- drug sensitivity score (KURAMOCHI; [1]): 0 DSS
- drug sensitivity score (KURAMOCHI; co-cultured fibroblast: WI38): 0.4 DSS
- drug sensitivity score (KURAMOCHI; [2]): 16.6 DSS

SMILES: c1cc(CN2CCCNCCNCCCNCC2)ccc1CN1CCCNCCNCCCNCC1 [Plerixafor]
- drug sensitivity score (OVCAR8; [1]): 0.5 DSS
- drug sensitivity score (OVCAR8; co-cultured fibroblast: WI38): 0 DSS
- drug sensitivity score (OVCAR8; [2]): 0.3 DSS
- drug sensitivity score (KURAMOCHI; [1]): 0 DSS
- drug sensitivity score (KURAMOCHI; co-cultured fibroblast: WI38): 0 DSS
- drug sensitivity score (KURAMOCHI; [2]): 0.6 DSS

SMILES: COc1cccc2c1C(=O)c1c(O)c3c(c(O)c1C2=O)C[C@@](O)(C(=O)CO)C[C@@H]3O[C@H]1C[C@H](N)[C@H](O)[C@H](C)O1 [Doxorubicin]
- drug sensitivity score (OVCAR8; [1]): 12.5 DSS
- drug sensitivity score (OVCAR8; co-cultured fibroblast: WI38): 12.3 DSS
- drug sensitivity score (OVCAR8; [2]): 12.1 DSS
- drug sensitivity score (KURAMOCHI; [1]): 10.7 DSS
- drug sensitivity score (KURAMOCHI; co-cultured fibroblast: WI38): 12.7 DSS
- drug sensitivity score (KURAMOCHI; [2]): 25.1 DSS

SMILES: Cn1c(=O)n(-c2ccc(C(C)(C)C#N)cc2)c2c3cc(-c4cnc5ccccc5c4)ccc3ncc21 [Dactolisib]
- drug sensitivity score (OVCAR8; [1]): 13.3 DSS
- drug sensitivity score (OVCAR8; co-cultured fibroblast: WI38): 8.2 DSS
- drug sensitivity score (OVCAR8; [2]): 17.6 DSS
- drug sensitivity score (KURAMOCHI; [1]): 12.4 DSS
- drug sensitivity score (KURAMOCHI; co-cultured fibroblast: WI38): 15.5 DSS
- drug sensitivity score (KURAMOCHI; [2]): 20.5 DSS

SMILES: CO[C@@H](C)Cn1c(=O)n(C)c2cnc3ccc(-c4cncc(C(C)(C)O)c4)cc3c21
- drug sensitivity score (OVCAR8; [1]): 9.6 DSS
- drug sensitivity score (OVCAR8; co-cultured fibroblast: WI38): 9.6 DSS
- drug sensitivity score (OVCAR8; [2]): 9.8 DSS
- drug sensitivity score (KURAMOCHI; [1]): 11.9 DSS
- drug sensitivity score (KURAMOCHI; co-cultured fibroblast: WI38): 10.9 DSS
- drug sensitivity score (KURAMOCHI; [2]): 9.2 DSS

SMILES: O=C(c1ccc(F)c(F)c1Nc1ccc(I)cc1F)N1CC(O)([C@@H]2CCCCN2)C1 [Cobimetinib]
- drug sensitivity score (OVCAR8; [1]): 8.4 DSS
- drug sensitivity score (OVCAR8; co-cultured fibroblast: WI38): 2.1 DSS
- drug sensitivity score (OVCAR8; [2]): 9.6 DSS
- drug sensitivity score (KURAMOCHI; [1]): 11.5 DSS
- drug sensitivity score (KURAMOCHI; co-cultured fibroblast: WI38): 6.4 DSS
- drug sensitivity score (KURAMOCHI; [2]): 7.2 DSS

SMILES: CN1CCN(C(=O)c2ccc3cc(CCNc4ncnc5ccc(C#N)cc45)ccc3c2)CC1 [Senexin B]
- drug sensitivity score (OVCAR8; [1]): 1.1 DSS
- drug sensitivity score (OVCAR8; co-cultured fibroblast: WI38): 0 DSS
- drug sensitivity score (OVCAR8; [2]): 0.1 DSS
- drug sensitivity score (KURAMOCHI; [1]): 1.1 DSS
- drug sensitivity score (KURAMOCHI; co-cultured fibroblast: WI38): 1.6 DSS
- drug sensitivity score (KURAMOCHI; [2]): 1 DSS

From the supplement of paper PMC12420376
